Reference: PubChem BioAssay (NCI)
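These data come from cells grown in 96-well plates and exposed to compound for 48 hours at five concentrations. GI50: concentration for 50% inhibition of growth. TGI: total growth inhibition.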

How the values were obtained:
Test in all cases: NCI tumour cell line growth inhibition, 48 h
[1] = tested on: NCI-H226 lung
[2] = tested on: MDA-MB-231 breast
[3] = tested on: RXF 393 renal
[4] = tested on: K-562 leukemia
[5] = tested on: LOX IMVI melanoma
[6] = tested on: HL-60(TB) leukemia
[7] = tested on: NCI/ADR-RES ovarian
[8] = tested on: ACHN renal
[9] = tested on: HOP-62 NSCLC
[10] = tested on: KM12 colon
[11] = tested on: TK-10 renal
[12] = tested on: HCT-116 colon
[13] = tested on: BT-549 breast
[14] = tested on: SNB-19 CNS
[15] = tested on: CCRF-CEM leukemia
[16] = tested on: MALME-3M melanoma
[17] = tested on: SN12C renal
[18] = tested on: SF-268 CNS
[19] = tested on: SK-MEL-2 melanoma
[20] = tested on: OVCAR-5 ovarian
[21] = tested on: SR leukemia
[22] = tested on: COLO 205 colon
[23] = tested on: HCC-2998 colon
[24] = tested on: SF-539 CNS
[25] = tested on: MDA-MB-435
[26] = tested on: SK-MEL-5 melanoma
[27] = tested on: HCT-15 colon
[28] = tested on: NCI-H460 lung
[29] = tested on: UACC-257 melanoma
[30] = tested on: UACC-62 melanoma
[31] = tested on: OVCAR-3 ovarian
[32] = tested on: NCI-H522 lung
[33] = tested on: SK-MEL-28 melanoma
[34] = tested on: M14 melanoma
[35] = tested on: HS 578T breast
[36] = tested on: OVCAR-8 ovarian
[37] = tested on: RPMI-8226 leukemia
[38] = tested on: U251 CNS
[39] = tested on: MOLT-4 leukemia
[40] = tested on: A549 NSCLC
[41] = tested on: MCF7 breast
[42] = tested on: HT29 colon
[43] = tested on: A498 renal
[44] = tested on: IGROV1 ovarian
[45] = tested on: T-47D breast
[46] = tested on: PC-3 prostate
[47] = tested on: 786-0 renal
[48] = tested on: SW-620 colon
[49] = tested on: SK-OV-3 ovarian
[50] = tested on: CAKI-1 renal
[51] = tested on: DU-145 prostate
[52] = tested on: HOP-92 NSCLC
[53] = tested on: UO-31 renal
[54] = tested on: OVCAR-4 ovarian
[55] = tested on: NCI-H23 lung

## O=S(=O)(c1ccc(NC(=S)NC23CC4CC(CC(C4)C2)C3)cc1)N1CCCCC1
[1]
  GI50: 4.05 µM
  TGI: > 100 µM
[2]
  GI50: 2.41 µM
  TGI: 5.6 µM
[3]
  GI50: 2.37 µM
  TGI: 6.6 µM
[4]
  GI50: 3.6 µM
  TGI: > 100 µM
[5]
  GI50: 3.71 µM
  TGI: > 100 µM
[6]
  GI50: 2.65 µM
  TGI: 6.24 µM
[7]
  GI50: 3.46 µM
  TGI: > 100 µM
[8]
  GI50: 3.12 µM
  TGI: > 100 µM
[9]
  GI50: 3.67 µM
  TGI: > 100 µM
[10]
  GI50: 3.65 µM
  TGI: 42.2 µM
[11]
  GI50: 3.27 µM
  TGI: 64.1 µM
[12]
  GI50: 3.34 µM
  TGI: > 100 µM
[13]
  GI50: 3 µM
  TGI: 9.4 µM
[14]
  GI50: 4.02 µM
  TGI: > 100 µM
[15]
  GI50: 3.13 µM
  TGI: > 100 µM
[16]
  GI50: 2.76 µM
  TGI: 8.3 µM
[17]
  GI50: 3.23 µM
  TGI: > 100 µM
[18]
  GI50: 4.12 µM
  TGI: > 100 µM
[19]
  GI50: 3.29 µM
  TGI: 7.39 µM
[20]
  GI50: 3.53 µM
  TGI: > 100 µM
[21]
  GI50: 2.69 µM
  TGI: > 100 µM
[22]
  GI50: 1.82 µM
  TGI: 3.22 µM
[23]
  GI50: 3.29 µM
  TGI: 19.9 µM
[24]
  GI50: 4.19 µM
  TGI: > 100 µM
[25]
  GI50: 3.49 µM
  TGI: > 100 µM
[26]
  GI50: 1.75 µM
  TGI: 3.31 µM
[27]
  GI50: 3.22 µM
  TGI: > 100 µM
[28]
  GI50: 3.35 µM
  TGI: > 100 µM
[29]
  GI50: 2.49 µM
  TGI: 6.8 µM
[30]
  GI50: 3.22 µM
  TGI: > 100 µM
[31]
  GI50: 3.51 µM
  TGI: 21.1 µM
[32]
  GI50: 2.7 µM
  TGI: 6.62 µM
[33]
  GI50: 5.23 µM
  TGI: > 100 µM
[34]
  GI50: 3.36 µM
  TGI: 22.7 µM
[35]
  GI50: 4.87 µM
  TGI: > 100 µM
[36]
  GI50: 3.22 µM
  TGI: > 100 µM
[37]
  GI50: 2.15 µM
  TGI: 5.86 µM
[38]
  GI50: 2.92 µM
  TGI: 13.3 µM
[39]
  GI50: 3.24 µM
  TGI: 11.4 µM
[40]
  GI50: 3.07 µM
  TGI: > 100 µM
[41]
  GI50: 3.18 µM
  TGI: > 100 µM
[42]
  GI50: 2.49 µM
  TGI: 5.84 µM
[43]
  GI50: 2.04 µM
  TGI: 7.79 µM
[44]
  GI50: 4.63 µM
  TGI: > 100 µM
[45]
  GI50: 3.28 µM
  TGI: > 100 µM
[46]
  GI50: 2.55 µM
  TGI: 8.94 µM
[47]
  GI50: 4.14 µM
  TGI: > 100 µM
[48]
  GI50: 3.82 µM
  TGI: > 100 µM
[49]
  GI50: 2.98 µM
  TGI: 9.26 µM
[50]
  GI50: 3.06 µM
  TGI: > 100 µM
[51]
  GI50: 4.09 µM
  TGI: > 100 µM
[52]
  GI50: 1.63 µM
  TGI: 5 µM
[53]
  GI50: 2.82 µM
  TGI: > 100 µM
[54]
  GI50: 4.01 µM
  TGI: > 100 µM
[55]
  GI50: 3.5 µM
  TGI: > 100 µM
